The values below come from the NIST ThermoML archive (doi:10.1021/je049551l).

Each structure is given as a SMILES string. ± gives the expanded uncertainty stated by the source.

For the series the following is noted: Crystal; DTA.

In the case of `COc1ccc2cc([C@H](C)C(=O)O)ccc2c1` [(S)-(+)-naproxen], the Normal melting temperature came to 157.50 ± 1.1 °C.

As for `NC(=O)/N=N/C(N)=O` [azodicarbonamide], the Normal melting temperature amounted to 224.50 ± 1.1 °C. Turning to `O=c1[nH]cc(F)c(=O)[nH]1` [5-fluoro-2,4(1H,3H)-pyrimidinedione], the Normal melting temperature came to 284.00 ± 4 °C.

Turning to `CC(C)Cc1ccc(C(C)C(=O)O)cc1` (stereo not drawn) [ibuprofen], the Normal melting temperature was 74.50 ± 3 °C. Under `O=c1oc(-c2ccccc2)nc2ccccc12` [2-phenyl-4H-3,1-benzoxazin-4-one] stands 124.00 ± 2 °C; under `Cc1cn([C@H]2C[C@H](O)[C@@H](CO)O2)c(=O)[nH]c1=O` [thymidine], 187.00 ± 2 °C. With `CC(=O)O[C@H]1C(=O)[C@@]2(C)[C@H]([C@H](OC(=O)c3ccccc3)[C@]3(O)C[C@H](OC(=O)[C@H](O)[C@@H](NC(=O)c4ccccc4)c4ccccc4)C(C)=C1C3(C)C)[C@]1(OC(C)=O)CO[C@@H]1C[C@@H]2O` [paclitaxel], the Normal melting temperature turned out to be 215.00 ± 4 °C. In the case of `CC(=O)Nc1ccc(O)cc1` [N-acetyl-p-aminophenol], the Normal melting temperature came out at 170.00 ± 4 °C.
